Some test systems named below: T47D; NCI-H226; SNB-19; DU-145; SNB-75; OVCAR-5; Hs-578T; SK-OV-3; SK-MEL-5; UO-31; 786-0; HT-29; CAKI-1; KM12; UACC-62; A549; U-251; SF-539; MOLT-4; CCRF-CEM.
What all share (assay): NCI tumour cell line growth inhibition, 48 h

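Protocol summary: plate cells (96-well), add compound at 5 concentrations, incubate 48 h, interpolate endpoints linearly. GI50: concentration for 50% inhibition of growth.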 The source made the active and inactive calls. No stated cut-off is given here; in the data, active = GI50 up to about 1.1 µM and inactive = higher.

Take `COC(=O)CCC1(CCC(=O)OC)CCCCCCC(CCC(=O)OC)(CCC(=O)OC)C(=O)C1=O`: the GI50 in the assay on T47D was 20.5 µM (inactive); with NCI-H226, > 100 µM (inactive); in the assay with SNB-19, > 100 µM (inactive); in the assay with DU-145, > 100 µM (inactive); with SNB-75, 49.1 µM (inactive); with OVCAR-5, > 100 µM (inactive). In addition, the GI50 in the assay on Hs-578T was > 100 µM (inactive); in the assay on SK-OV-3, > 100 µM (inactive); in the assay on SK-MEL-5, 59 µM (inactive); in the assay on UO-31 it was 44.4 µM (inactive); in the assay on 786-0, > 100 µM (inactive); in the assay on HT-29, 60.3 µM (inactive). Further, the GI50 in the assay on CAKI-1, in the assay with KM12, in the assay on UACC-62, with A549, in the assay with U-251 and in the assay with SF-539 was > 100 µM (inactive) in each case.
In the case of `O=[N+]([O-])c1ccc(N/N=C2/CC3=C2CCCCCCCCCC3)c([N+](=O)[O-])c1`, the GI50 is > 100 µM (inactive) with T47D; > 100 µM (inactive) in the assay with NCI-H226; > 100 µM (inactive) in the assay with SNB-19; > 100 µM (inactive) in the assay on DU-145; 44.4 µM (inactive) in the assay on SNB-75; > 100 µM (inactive) in the assay with OVCAR-5. In addition, the GI50 is 39.3 µM (inactive) with Hs-578T; > 100 µM (inactive) with SK-OV-3; > 100 µM (inactive) in the assay on SK-MEL-5; > 100 µM (inactive) in the assay on UO-31; 80.9 µM (inactive) in the assay with 786-0; > 100 µM (inactive) in the assay on MOLT-4. For the same molecule, the GI50 in the assay on HT-29, in the assay with CAKI-1, in the assay with KM12, in the assay with UACC-62, in the assay on A549 and in the assay on U-251 was > 100 µM (inactive) throughout. Further, in the assay with CCRF-CEM, the GI50 was > 100 µM (inactive).
Regarding `C#C[C@]1(O)CC[C@H]2[C@@H]3CCC4=C/C(=N/OCCN(C)C)CC[C@]4(C)[C@H]3CC[C@@]21C`, the GI50 with T47D was > 100 µM (inactive); with NCI-H226 it was 27.3 µM (inactive); in the assay with SNB-19 it was 27.9 µM (inactive); with DU-145, 22.3 µM (inactive); in the assay with SNB-75, 30.1 µM (inactive); in the assay with OVCAR-5, 56.8 µM (inactive). For the same molecule, the GI50 in the assay on Hs-578T was 26.9 µM (inactive); with SK-OV-3, 40.1 µM (inactive); in the assay with SK-MEL-5, 13.2 µM (inactive); in the assay with UO-31 it was 62.5 µM (inactive); in the assay with 786-0, 29.2 µM (inactive); in the assay on MOLT-4, 32.9 µM (inactive). The GI50 was 6.78 µM (inactive) in the assay on HT-29; 78 µM (inactive) in the assay on CAKI-1; 52 µM (inactive) in the assay on KM12; 32.5 µM (inactive) with UACC-62; 31.7 µM (inactive) with A549; 33.6 µM (inactive) in the assay on U-251. Moreover, the GI50 with CCRF-CEM was 16.3 µM (inactive).
Take `Cc1ccc(S(=O)(=O)NC(=O)NC(CCC(N)=O)C(=O)O)cc1` (configuration not stated): the GI50 in the assay on T47D, in the assay on SNB-19, with DU-145, in the assay with SNB-75, with OVCAR-5 and in the assay with Hs-578T was > 100 µM (inactive) throughout. The GI50 with SK-OV-3, in the assay on SK-MEL-5, in the assay with UO-31, in the assay with 786-0, in the assay on MOLT-4 and in the assay with HT-29 was > 100 µM (inactive) throughout. Besides, the GI50 in the assay on KM12, with UACC-62, in the assay with A549, in the assay on U-251, in the assay on SF-539 and in the assay with CCRF-CEM was > 100 µM (inactive) in each case.
`C/C(=C\CO)CC/C=C(\C)CNc1ccc([N+](=O)[O-])cc1`: the GI50 in the assay on T47D was 11.6 µM (inactive); with NCI-H226 it was 96.6 µM (inactive); with SNB-19, 40.3 µM (inactive); with DU-145, 50.4 µM (inactive); in the assay with SNB-75, 0.0219 µM (active); in the assay on OVCAR-5 it was 41.7 µM (inactive). Besides, the GI50 is 16.6 µM (inactive) with Hs-578T; > 100 µM (inactive) with SK-OV-3; 12 µM (inactive) in the assay on SK-MEL-5; 7.98 µM (inactive) in the assay with UO-31; > 100 µM (inactive) with 786-0; 1.93 µM (inactive) in the assay on MOLT-4. Besides, the GI50 in the assay with HT-29 was 27.4 µM (inactive); in the assay with CAKI-1 it was 80.5 µM (inactive); in the assay with KM12, 16.1 µM (inactive); in the assay with UACC-62 it was 27.5 µM (inactive); in the assay on A549, 34.2 µM (inactive); in the assay with U-251, 23.7 µM (inactive). Moreover, the GI50 in the assay on SF-539 is 28.6 µM (inactive).
For the molecule `Oc1nc(-c2ccc3ccccc3c2)nc2ccccc12`, the GI50 in the assay on T47D was 64 µM (inactive); in the assay with NCI-H226 it was 12.6 µM (inactive); with SNB-19, 19.1 µM (inactive); with DU-145, > 100 µM (inactive); in the assay with SNB-75 it was 4.53 µM (inactive); in the assay on OVCAR-5, 35.2 µM (inactive). Further, the GI50 in the assay on Hs-578T is 24.3 µM (inactive); in the assay with SK-OV-3, 30.3 µM (inactive); in the assay with SK-MEL-5, > 100 µM (inactive); with UO-31 it was 23.4 µM (inactive); with 786-0, 6.89 µM (inactive); in the assay with MOLT-4 it was > 100 µM (inactive). Also, the GI50 was 57.7 µM (inactive) with HT-29; 75 µM (inactive) in the assay on CAKI-1; > 100 µM (inactive) with KM12; > 100 µM (inactive) in the assay with UACC-62; 26.9 µM (inactive) with A549; 25.5 µM (inactive) in the assay with U-251.
With `Nc1c2c(nc3cc(F)c(F)cc13)CCC2`, the GI50 is 96.6 µM (inactive) in the assay with T47D; 33.3 µM (inactive) with NCI-H226; 48.6 µM (inactive) in the assay with SNB-19; 52.6 µM (inactive) in the assay on DU-145; 42.5 µM (inactive) in the assay with SNB-75; 49.9 µM (inactive) in the assay with OVCAR-5. Further, the GI50 is > 100 µM (inactive) in the assay on Hs-578T; 62.1 µM (inactive) with SK-OV-3; 42.7 µM (inactive) in the assay on SK-MEL-5; 4.05 µM (inactive) in the assay with UO-31; 45.6 µM (inactive) with 786-0; 30.5 µM (inactive) with MOLT-4. Besides, the GI50 in the assay on HT-29 was 31.8 µM (inactive); in the assay on CAKI-1, 47.5 µM (inactive); with KM12 it was 50.2 µM (inactive); in the assay with UACC-62, 82.4 µM (inactive); in the assay on A549, 42.2 µM (inactive); with U-251, 56.6 µM (inactive). Also, in the assay with SF-539, the GI50 was 46 µM (inactive).
Regarding `CC(C)(CO)N1C(=O)c2ccccc2C1(O)c1ccc(Cl)cc1` (configuration not stated), the GI50 with T47D was 72.3 µM (inactive); in the assay with NCI-H226, > 100 µM (inactive); in the assay with SNB-19 it was > 100 µM (inactive); in the assay with DU-145 it was > 100 µM (inactive); in the assay with SNB-75 it was > 100 µM (inactive); in the assay on OVCAR-5, > 100 µM (inactive). The GI50 is > 100 µM (inactive) in the assay on Hs-578T; > 100 µM (inactive) in the assay with SK-OV-3; > 100 µM (inactive) in the assay on SK-MEL-5; 63.2 µM (inactive) with UO-31; > 100 µM (inactive) in the assay with 786-0; > 100 µM (inactive) in the assay on MOLT-4. For the same molecule, the GI50 in the assay with HT-29, in the assay with CAKI-1, in the assay with KM12, with UACC-62, in the assay on A549 and in the assay on U-251 was > 100 µM (inactive) each time. Further, in the assay with CCRF-CEM, the GI50 was > 100 µM (inactive).
On to `CCOC(=O)C1=[N+]([O-])OC2=C(O)CCCC21` (configuration not stated), for which the GI50 in the assay with T47D, in the assay on NCI-H226, in the assay with SNB-19, with DU-145, in the assay on SNB-75 and in the assay on OVCAR-5 was > 100 µM (inactive) each time. Moreover, the GI50 in the assay with Hs-578T, in the assay on SK-OV-3, in the assay on SK-MEL-5, in the assay on UO-31, in the assay on 786-0 and in the assay with MOLT-4 was > 100 µM (inactive) in each case. The GI50 in the assay on HT-29, with CAKI-1, in the assay with KM12, with UACC-62, in the assay with A549 and in the assay with U-251 was > 100 µM (inactive) each time. For the same molecule, the GI50 with CCRF-CEM was > 100 µM (inactive).
`CC(=O)C(C(C)=O)[C@H]1OC(C)(C)O[C@H]1[C@H]1COC(C)(C)O1`: the GI50 in the assay on T47D is 89.1 µM (inactive); with SNB-19 it was 41.6 µM (inactive); in the assay on DU-145, 42.1 µM (inactive); with SNB-75, 42.2 µM (inactive); in the assay on OVCAR-5, > 100 µM (inactive); with Hs-578T it was 44.8 µM (inactive). For the same molecule, the GI50 was 29.2 µM (inactive) with SK-OV-3; 29.1 µM (inactive) in the assay with SK-MEL-5; 49.8 µM (inactive) in the assay on UO-31; 51.3 µM (inactive) in the assay on 786-0; 50.8 µM (inactive) in the assay on MOLT-4; 33.6 µM (inactive) in the assay with HT-29. For the same molecule, the GI50 in the assay on CAKI-1 was 73.6 µM (inactive); in the assay with KM12, 35.7 µM (inactive); with UACC-62 it was 43.2 µM (inactive); with A549, 42.6 µM (inactive); with U-251 it was 24.9 µM (inactive); in the assay with SF-539, 18.7 µM (inactive). Moreover, the GI50 in the assay on CCRF-CEM is 36.9 µM (inactive).

The values are drawn from ChEMBL document CHEMBL1201862, “PubChem BioAssay data set” (2004).
